Experiment [1] concerns STING subcytokines (IFN-β, IL-6, IL-15, IL-15Rα). In words: qRT-PCR of STING subcytokine gene expression in Raw264.7 cells. The class given is cell-based, mouse. The conditions noted are these: time-dependent and concentration-dependent, FIG. 6. As for the experimental part: In order to confirm whether the oxopiperazine derivatives of Formulas 1 to 6 increase the immune activation efficacy of the STING agonist cGAMP by increasing the amount of STING, the gene expression levels of the STING subcytokine interferon-beta (IFN-β), interleukin-6 (IL-6), interleukin-15 (IL-15), and interleukin-15 receptor alpha (IL-15Rα) were confirmed through quantitative real-time PCR (qRT-PCR) experiments.
Specifically, Raw264.7 cells were seeded in a transparent 12-well plate and cultured for one day. Thereafter, the cells were treated with cGAMP and the oxopiperazine derivatives of Formulas 1 to 6, respectively, and then cultured for six hours. Finally, after the supernatant culture medium of the cells was removed, the remaining supernatant was diluted with PBS (phosphate buffer saline) and removed to prepare qRT-PCR samples. mRNA was extracted from cells by using the RNeasy mini kit of QIAGEN according to the protocol of the manufacturer. After the concentration of RNA was measured by using Nanoview equipment of GE Healthcare, 1 μg RNA was quantified, and complementary DNA (cDNA) was synthesized by using the Accupower cyclescript RT premix dT20 (Bioneer) product according to the protocol of the manufacturer. […] The mixed samples were analyzed by using the StepOne Plus Real-Time PCR system (Applied Biosciences), and the results were plotted by using the Prism 8.0 program.

For experiment [2], the target named is STING (Homo sapiens, UniProt Q86WV6). Description: Western blotting of STING under co-treatment with MG132, actinomycin D or cycloheximide. It counts as cell-based. From the text:
In addition, in order to cross-validate the results of the ELISA experiment, it was confirmed whether the STING increasing effect of the compound of Formula 1 was disappeared when ubiquitinated proteins were prevented from being degraded by treatment with MG132.
In addition, in order to exclude the possibility that the increase in STING expression by the compound of Formula 1 can occur through cellular mechanisms other than ubiquitin-mediated reactions, the transcription inhibitor actinomycin D (ActD) and the ribosome translation inhibitor cycloheximide (CHX) were co-treated with the compound of Formula 1, and whether the STING increase effect was still maintained was confirmed by using the Western blotting method.
For orientation: A western blot detects proteins with antibodies after separation by electrophoresis.

For experiment [3], the system named is phosphorylation of downstream signaling proteins TBK1 and IRF3. In words: Western blotting of STING sub-immune signaling pathway activation. It counts as cell-based. Conditions: in combination with cGAMP; FIG. 7. The protocol:
First, the A431 cell line was seeded in a transparent 12-well plate and cultured for one day. Thereafter, the cells were treated with the compounds of Formulas 1 to 6, respectively, and then cultured for additional 24 hours. Finally, after supernatant culture medium of the cells was removed, the remaining supernatant was diluted and removed with PBS (phosphate buffer saline) to prepare a Western blotting sample. All procedures for preparing Western blotting sample were performed at 4° C. […] The protein concentration of the supernatant was measured by using the Micro BCA™ protein assay kit (ThermoFisher) according to the protocol of the manufacturer. […] The treated samples were analyzed by SDS-PAGE, then transferred to a PVDF membrane, and cultured in a TBST solution containing 4% BSA for 30 minutes. […] Finally, after four TBST washing processes, the solution was developed with an ECL (enhanced chemiluminescence) prime solution of Amersham, the chemical luminescence signal was measured by using ChemiDoc MP of Bio-Rad Laboratories, Inc., the obtained results were quantified by using the ImageLab 6.0 program, and the results were plotted by using the Prism 8.0 program. […]

Another experiment concerns CT26 tumor. Description: Tumor growth in CT26 in vivo syngeneic mouse model. The conditions noted are these: CT26, intratumoral, FIG. 23. The protocol: 2×10^5 CT26 cell lines were prepared in 50 μL culture medium and subcutaneously injected. […] The cGAMP solution was manufactured with a final composition of PEG400:distilled water=40:60, and 20 μL was injected each time. The solution of the compound of Formula 1 was manufactured with the composition of DMSO:PEG400:distilled water=2:40:58, and 20 μL was injected each time. The cGAMP solution was injected once every two days, four times in total, and the solution of the compound of Formula 1 was injected once every four days, two times in total, starting with the second administration of cGAMP. The size of the tumor was measured by using calipers every two days, and the volume thereof was calculated as (length×width×height/2). The body weight of the mice was also measured every two days.

The target of experiment [4] is T1, STING (Mus musculus, UniProt Q3TBT3).
T1 sequence (Q3TBT3 1-378): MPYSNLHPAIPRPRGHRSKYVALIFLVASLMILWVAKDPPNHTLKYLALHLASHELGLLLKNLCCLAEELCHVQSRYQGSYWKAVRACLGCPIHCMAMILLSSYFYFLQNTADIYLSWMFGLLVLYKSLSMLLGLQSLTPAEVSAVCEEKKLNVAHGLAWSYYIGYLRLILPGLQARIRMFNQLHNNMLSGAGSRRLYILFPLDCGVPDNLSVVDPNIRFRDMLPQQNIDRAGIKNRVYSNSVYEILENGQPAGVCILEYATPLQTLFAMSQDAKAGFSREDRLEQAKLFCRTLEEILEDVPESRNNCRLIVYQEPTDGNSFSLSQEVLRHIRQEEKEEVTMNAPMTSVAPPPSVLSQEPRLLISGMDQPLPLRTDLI
In words: STING expression level in immune cells inside tumor by flow cytometry. It counts as in vivo. Conditions: compound alone, FIG. 28. The protocol:
As described above, after euthanasia with carbon dioxide, the tumor was extracted, TIL was separated, and intracellular STING staining was performed in the same manner as in <Example 6>.

The mark [5] stands for this setting: combination with cGAMP compared with the control group.

Sequence of STING (Homo sapiens, UniProt Q86WV6) (Q86WV6 whole entry H232R, species assumed): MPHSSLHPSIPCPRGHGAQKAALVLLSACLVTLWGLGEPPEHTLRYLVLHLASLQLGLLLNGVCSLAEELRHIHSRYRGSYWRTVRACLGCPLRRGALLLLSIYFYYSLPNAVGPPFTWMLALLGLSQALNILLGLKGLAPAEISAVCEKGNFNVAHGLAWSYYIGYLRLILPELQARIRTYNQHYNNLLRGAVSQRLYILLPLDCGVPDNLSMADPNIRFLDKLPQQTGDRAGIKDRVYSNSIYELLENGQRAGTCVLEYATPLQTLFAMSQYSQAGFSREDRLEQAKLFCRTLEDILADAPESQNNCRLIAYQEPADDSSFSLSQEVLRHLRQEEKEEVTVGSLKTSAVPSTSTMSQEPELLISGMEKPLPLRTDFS

Take `COc1ccc(CC2=CN(c3ccc(C(=O)NC[C@H]4CCCO4)cc3[N+](=O)[O-])[C@H](C(C)C)C(=O)N2Cc2ccc(O)cc2)cc1` [Formula 1, 4-((R)-4-(4-hydroxybenzyl)-2-isopropyl-5-(4-methoxybenzyl)-3-oxo-3,4-dihydropyrazin-1 (2H)-yl)-3-nitro-N-(((R)-tetrahydrofuran-2-yl)methyl)benzamide]: the “expression of IL-15 and IL-15Rα” value in experiment [1] is reported as “increased”. In addition, the “intracellular amount of STING under transcription and translation inhibition” value at STING [2] (co-treated with actinomycin D (ActD) and cycloheximide (CHX), Western blotting, FIG. 10) is listed as “still increased the intracellular amount of STING”. For the same compound, the “STING amount under MG132 treatment” value on STING [2] (co-treated with proteasome inhibitor MG132, Western blotting, FIG. 9) is on record as “STING was not increased”. For the same compound, the “degree of phosphorylation of TBK1 and IRF3” value in experiment [3] is on record as “further increased”. Besides, the tumor growth result in the experiment on CT26 tumor (combination with cGAMP compared with single treatment with cGAMP) is “inhibited in a concentration-dependent manner”; in the experiment on CT26 tumor (setting [5]), “inhibited”. In the experiment on CT26 tumor (setting [5]), the “weight of the tumor extracted on the final day” value is reported as “reduced”. Moreover, the “amount of STING in tumor-associated macrophages (TAM) and dendritic cells (DC)” value on STING [4] (tumor extracted one day after final treatment) was “increased”. For the same compound, the “effect of increasing STING in M1 compared to M2 macrophages” value on STING [4] is recorded as “more noticeably exhibited in M1 macrophages”.

The record behind these values is patent US20250127778A1, “CANCER IMMUNOTHERAPY COMPOSITION CONTAINING INTERACTION INHIBITOR OF STING AND TRIM29 AS ACTIVE INGREDIENT” (SPARK BIOPHARMA, INC, priority 2021, published 2025).
